US11541050B2, “Pyrimidine derivatives for the treatment of viral infections” (JANSSEN SCIENCES IRELAND UC, priority 2011, dated 2023)

Experiments:
[1] = target: T1, human TLR7 (wild type sequence) (Homo sapiens, UniProt Q9NYK1); assay: TLR7 cellular NFκB-luc reporter assay, wild type TLR7; type: cell-based; parameters: unit not given here; conditions: lowest effective concentration, wild type TLR7 (compounds 74 onward)
T1 construct: expressed in transfected cells; host or cells: HEK293
T1 sequence (Q9NYK1 27-1049): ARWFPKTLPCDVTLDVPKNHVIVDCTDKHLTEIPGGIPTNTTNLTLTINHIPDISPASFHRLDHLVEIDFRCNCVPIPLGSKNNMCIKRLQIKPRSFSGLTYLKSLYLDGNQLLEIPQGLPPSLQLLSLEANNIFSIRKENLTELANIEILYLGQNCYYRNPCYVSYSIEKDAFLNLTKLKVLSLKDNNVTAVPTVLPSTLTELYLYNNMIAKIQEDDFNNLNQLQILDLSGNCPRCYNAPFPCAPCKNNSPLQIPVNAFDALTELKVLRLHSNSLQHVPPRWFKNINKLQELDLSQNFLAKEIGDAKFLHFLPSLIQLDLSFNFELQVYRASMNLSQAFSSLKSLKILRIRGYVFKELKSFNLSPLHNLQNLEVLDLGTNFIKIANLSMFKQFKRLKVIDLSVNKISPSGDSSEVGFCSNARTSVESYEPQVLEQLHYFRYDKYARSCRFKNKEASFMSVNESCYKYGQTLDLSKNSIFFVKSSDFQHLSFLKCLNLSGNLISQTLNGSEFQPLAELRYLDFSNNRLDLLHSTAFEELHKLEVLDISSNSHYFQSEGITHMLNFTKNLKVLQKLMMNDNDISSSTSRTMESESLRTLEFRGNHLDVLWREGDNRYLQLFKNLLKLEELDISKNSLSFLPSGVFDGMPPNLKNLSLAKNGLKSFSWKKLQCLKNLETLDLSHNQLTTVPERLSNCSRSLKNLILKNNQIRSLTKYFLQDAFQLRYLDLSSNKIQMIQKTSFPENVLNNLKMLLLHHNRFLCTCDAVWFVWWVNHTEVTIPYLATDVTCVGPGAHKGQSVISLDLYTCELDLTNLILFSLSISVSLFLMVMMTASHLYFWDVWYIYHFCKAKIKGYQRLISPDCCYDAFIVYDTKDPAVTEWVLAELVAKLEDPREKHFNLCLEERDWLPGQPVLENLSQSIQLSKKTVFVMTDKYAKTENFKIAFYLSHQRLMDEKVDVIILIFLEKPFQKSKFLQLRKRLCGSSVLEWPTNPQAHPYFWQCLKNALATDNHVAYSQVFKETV
Method: (§1) The ability of compounds to activate human TLR7 and/or TLR8 was assessed in a cellular reporter assay using HEK293 cells transiently transfected with a TLR7 or TLR8 expression vector and NFκB-luc reporter construct. In one instance the TLR expression construct expresses the respective wild type sequence or a mutant sequence comprising a deletion in the second leucine-rich repeat of the TLR.
(§2) Briefly, HEK293 cells were grown in culture medium (DMEM supplemented with 10% FCS and 2 mM Glutamine). For transfection of cells in 10 cm dishes, cells were detached with Trypsin-EDTA, transfected with a mix of CMV-TLR7 or TLR8 plasmid (750 ng), NFκB-luc plasmid (375 ng) and a transfection reagent and incubated for 48 hours at 37° C. in a humidified 5% CO2 atmosphere. Transfected cells were then detached with Trypsin-EDTA, washed in PBS and resuspended in medium to a density of 1.67×10^5 cells/mL. Thirty microliters of cells were then dispensed into each well in 384-well plates, where 10 μL of compound in 4% DMSO was already present. Following 6 hours incubation at 37° C., 5% CO2, the luciferase activity was determined by adding 15 μl of Steady Lite Plus substrate (Perkin Elmer) to each well and readout performed on a ViewLux ultraHTS microplate imager (Perkin Elmer). Dose response curves were generated from measurements performed in quadruplicates. Lowest effective concentrations (LEC) values, defined as the concentration that induces an effect which is at least two fold above the standard deviation of the assay, were determined for each compound.

[2] = target: T2, human TLR8 (wild type sequence) (Homo sapiens, UniProt Q9NR97); assay: TLR8 cellular NFκB-luc reporter assay, wild type TLR8; type: cell-based; parameters: unit not given here; conditions: lowest effective concentration, wild type TLR8 (compounds 74 onward)
T2 construct: expressed in transfected cells; host or cells: HEK293
T2 sequence (Q9NR97 27-1041): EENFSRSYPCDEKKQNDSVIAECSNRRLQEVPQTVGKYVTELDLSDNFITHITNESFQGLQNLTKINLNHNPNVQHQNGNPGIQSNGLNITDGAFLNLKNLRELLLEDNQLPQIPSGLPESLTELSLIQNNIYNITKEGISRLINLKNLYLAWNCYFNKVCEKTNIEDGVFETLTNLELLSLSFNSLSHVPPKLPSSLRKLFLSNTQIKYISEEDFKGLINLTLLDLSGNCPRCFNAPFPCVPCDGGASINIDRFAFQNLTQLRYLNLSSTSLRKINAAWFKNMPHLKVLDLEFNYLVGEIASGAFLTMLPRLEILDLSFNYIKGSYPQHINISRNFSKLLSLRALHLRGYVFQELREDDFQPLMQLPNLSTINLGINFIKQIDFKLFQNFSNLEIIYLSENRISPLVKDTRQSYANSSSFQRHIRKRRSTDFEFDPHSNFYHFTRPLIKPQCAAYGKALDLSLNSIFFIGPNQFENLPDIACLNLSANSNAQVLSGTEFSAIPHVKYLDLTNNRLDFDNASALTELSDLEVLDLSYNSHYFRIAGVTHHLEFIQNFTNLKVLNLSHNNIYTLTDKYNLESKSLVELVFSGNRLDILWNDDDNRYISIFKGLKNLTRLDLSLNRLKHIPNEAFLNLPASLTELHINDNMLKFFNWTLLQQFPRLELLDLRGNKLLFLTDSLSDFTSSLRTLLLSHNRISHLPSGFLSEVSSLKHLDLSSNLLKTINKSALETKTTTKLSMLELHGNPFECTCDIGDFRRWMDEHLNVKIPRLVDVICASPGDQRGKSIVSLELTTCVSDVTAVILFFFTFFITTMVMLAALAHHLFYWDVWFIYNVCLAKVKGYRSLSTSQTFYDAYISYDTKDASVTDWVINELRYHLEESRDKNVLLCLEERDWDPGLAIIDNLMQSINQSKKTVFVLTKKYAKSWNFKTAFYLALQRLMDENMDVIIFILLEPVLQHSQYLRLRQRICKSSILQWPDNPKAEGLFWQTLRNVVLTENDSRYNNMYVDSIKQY
Method: as §1, §2

[3] = test system: HCV replicon in Huh-7 luc/neo cells; assay: Suppression of HCV replicon replication by conditioned media from compound-treated PBMC; type: cell-based, HCV type 1 b; conditions: Hepatitis C virus; conditioned media from compound-treated PBMC on Huh-7 luc/neo replicon cells (compounds 74 onward); read-out: PBMC HUH-7 EC50
Method: Activation of human TLR7 results in robust production of interferon by plasmacytoid dendritic cells present in human blood. The potential of compounds to induce interferon was evaluated by looking at the antiviral activity in the HCV replicon system upon incubation with conditioned media from peripheral blood mononuclear cells (PBMC). […] The assay utilized the stably transfected cell line Huh-7 luc/neo harboring an RNA encoding a bicistronic expression construct comprising the wild type NS3-NS5B regions of HCV type 1 b translated from an Internal Ribosome Entry Site (IRES) from encephalomyocarditis virus (EMCV), preceded by a reporter gene (Firefly-luciferase) and a selectable marker gene (neoR, neomycine phosphotransferase). The construct is flanked by 5′ and 3′ NTRs (non-translated regions) from HCV type 1 b. Continued culture of the replicon cells in the presence of G418 (neoR) is dependent on the replication of the HCV RNA. The stably transfected replicon cells that replicate HCV RNA autonomously and to high levels, encoding inter alia luciferase, were used for profiling of the conditioned cell culture media.
Briefly, PBMCs were prepared from buffy coats of at least two donors using a standard Ficoll centrifugation protocol. Isolated PBMCs were resuspended in RPMI medium supplemented with 10% human AB serum and 2×10^5 cells/well were dispensed into 384-well plates containing compounds (70 μL total volume). After overnight incubation, 10 μL of supernatant was transferred to 384-well plates containing 2.2×10^3 replicon cells/well in 30 μL (plated the day before). Following 24 hours of incubation, replication was measured by assaying luciferase activity using 40 μL/well Steady Lite Plus substrate (Perkin Elmer) and measured with ViewLux ultraHTS microplate imager (Perkin Elmer). […] Recombinant interferon α-2a (Roferon-A) was used as a standard control compound.

Row | SMILES | TLR 7 wt LEC [1] | TLR 8 wt LEC [2] | EC50 [3] [nM]
1 | CCCCNc1nc(N)ncc1OCCCc1ccc(F)cc1F [Compound 107] | 2.460 | 3.940 | 1590
2 | CCCCNc1nc(N)ncc1OCCCc1ccccc1Br [Compound 108] | 6.580 | >25 | 6770
3 | CCCCNc1nc(N)ncc1OCCCc1ccc(Cl)cc1 [Compound 109] | 0.790 | 2.230 | 393
4 | CCCCNc1nc(N)ncc1OCCCCc1ccccc1 [Compound 110] | 2.380 | 3.780 | 740
5 | CCCC(C)Nc1nc(N)ncc1OCCCc1ccccc1 (stereo not drawn) [Compound 112] | 3.960 | 5.560 | 3350
6 | CCCC[C@@H](CCO)Nc1nc(N)ncc1OCCCc1ccccc1 [Compound 113] | 0.433 | 2.240 | 251
7 | CCCC(CCC)Nc1nc(N)ncc1OCCCc1ccccc1 [Compound 114] | 2.020 | >25 | 2000
8 | CC[C@H](C)[C@@H](CO)Nc1nc(N)ncc1OCCCc1ccccc1 [Compound 115] | 6.180 | 6.510 | 3730
9 | CCCCNc1nc(N)ncc1OCc1cc(-c2ccco2)on1 [Compound 116] | 0.652 | 1.610 | 66
10 | CCCCNc1nc(N)ncc1OCc1cc(C)n(C)n1 [Compound 117] | 0.335 | 1.120 | 88
11 | CCCCNc1nc(N)ncc1OCc1c(C)noc1-c1ccccc1 [Compound 118] | 1.670 | 3.710 | 976
12 | CCCCNc1nc(N)ncc1OCc1ccc(C(F)(F)F)o1 [Compound 119] | 1.720 | 6.120 | 193
13 | CCCCNc1nc(N)ncc1OCc1ccc(C(=O)OC)o1 [Compound 120] | 0.649 | 3.910 | 273
14 | CCCCNc1nc(N)ncc1OCc1ccc(C(F)(F)F)nc1 [Compound 121] | 0.797 | 3.020 | 272
15 | CCCCNc1nc(N)ncc1OCc1cccc(C)n1 [Compound 122] | 0.118 | 0.628 | 25
16 | CCCCCNc1nc(N)nc(C)c1OCc1ccccc1 [Compound 124] | 15.610 | 13.650 | > 23800
17 | CCC[C@@H](CO)Nc1nc(N)ncc1OCCCc1ccccc1 [Compound 125] | 1.630 | 0.598 | 336
18 | CCCCNc1nc(N)ncc1OCCOc1ccc(C#N)cc1 [Compound 126] | 1.000 | 1.020 | 264
19 | CCCCNc1nc(N)ncc1OCCOc1cccc(OC)c1 [Compound 127] | 1.030 | 2.050 | 256
20 | CCCCNc1nc(N)ncc1OCCOc1ccnc2ccccc12 [Compound 128] | 2.430 | 3.740 | 284
21 | CCCCNc1nc(N)ncc1OCCOc1cc(OC)cc(OC)c1 [Compound 129] | 2.090 | 3.250 | 432
22 | CCCCNc1nc(N)ncc1OCCOc1cccc(OC)c1OC [Compound 130] | 0.676 | 6.560 | 103
23 | CCCCNc1nc(N)ncc1OCCOc1ccccc1C(F)(F)F [Compound 131] | 1.700 | >25 | 806
